The values below come from patent publication US20060258750A1, “Use of bicyclo[2.2.1]heptane derivatives for the preparation of neuroprotective pharmaceutical compositions” (priority 2003, published 2006).

The conditions of assay [1]: cited from earlier work.
A further assay has as its target central 5-HT2C receptors (Homo sapiens, UniProt P28335). To be noted: cited from earlier work.
The conditions of assay [2]: single 0.7 mg/kg oral treatment; cited from earlier work.
Assay [3] concerns hippocampal CA1 pyramidal cell death. Briefly: Global cerebral ischemia by 3 min bilateral carotid artery occlusion (BCO): hippocampal CA1 neuronal damage score. The format is in vivo, Mongolian gerbils. The procedure:
(§1) In our experiments male Mongolian gerbils weighing 50-80 g were used. Deramciclane was administered at 3×30 mg/kg intraperitoneally 60 min before, 30 and 90 min after surgery. Deramciclane was suspended in 0.4% methyl-cellulose solution. In ether narcosis, the right and left common carotid arteries were exposed through an anterior midline cervical incision and isolated from the vagus nerves and the surrounding tissues. Full arrest of carotid blood flow was achieved by tightening an aneurysm clip for 3 min. During surgery the body temperature of the animals was kept at the individual preoperative level (37.5±0.5° C.) with the help of a heating pad and a heating lamp.
After behavioural testing the animals were anesthetized with 60 mg/kg i.p. pentobarbital (10 ml/kg) and perfused through the heart first with saline then with a fixative solution containing 0.1% glutaraldehyde, 4% paraformaldehyde, and 0.2% picric acid in 0.1 M phosphate buffer pH 7.4 for 30 min. The brain was removed from the skull and post-fixed for at least 1 week at 4° C. in the same fixative solution.
Alternate coronal sections of 60 μm thickness were cut from different levels of the dorsal hippocampus by a microtone. The sections were repeatedly washed in 0.1 M phosphate buffer then stained by silver impregnation.
The sections were examined under light microscopy and the overall neuronal damage in the hippocampal CA1 subfield in both hippocampi was scored on a 6-point scale: (0) undamaged, (1)<10%, (2) 10-30%, (3) 30-50%, (4) 50-70%, (5) 70-90%, and (6) 90-100% cell loss. Group differences between drug-treated and vehicle-treated groups were statistically analysed by Mann-Whitney U-test.

The test system of the next assay is Mongolian gerbils. In words: Global cerebral ischemia (BCO): locomotor activity in symmetrical Y-maze four days after surgery. The format is in vivo. The procedure:
as §1
The Mongolian gerbils were placed in the centre of the maze then the number of entries into the three arms was recorded for 5 min. By definition, the animal performed an arm entry when it entered the arm and proceeded at least the distance of its body length. The gerbil was considered to exit the arm when it left it fully. Differences between groups were statistically evaluated by Kruskal-Wallis ANOVA. In case of p<0.05 significance Mann-Whitney U-test was used for paired comparisons.

The conditions of assay [4]: 1 and 10 mg/kg ip.; cited from earlier work.
The conditions of assay [5]: 10 and 30 mg/kg after oral treatment; cited from earlier work.
In a further assay the target is central 5-HT2A receptors (Homo sapiens, UniProt P28223). To be noted: cited from earlier work.
The conditions of assay [6]: 1 and 10 mg/kg after oral administration; cited from earlier work.
The conditions of assay [7]: single oral dose of 3 mg/kg; cited from earlier work.
In assay [8] the test system is brain damage after transient global cerebral ischaemia. To be noted: global cerebral ischaemia in gerbils; cited from earlier work.
Where [9] appears, read: 3 × 30 mg/kg i.p., compared to the BCO group.
[10] abbreviates: in the applied dose (3 × 30 mg/kg i.p.).

“Also recorded” adds a separate entry of the source. Marks after values point to notes of the source that are not given here.

Chain of central 5-HT2C receptors (P28335 33-458): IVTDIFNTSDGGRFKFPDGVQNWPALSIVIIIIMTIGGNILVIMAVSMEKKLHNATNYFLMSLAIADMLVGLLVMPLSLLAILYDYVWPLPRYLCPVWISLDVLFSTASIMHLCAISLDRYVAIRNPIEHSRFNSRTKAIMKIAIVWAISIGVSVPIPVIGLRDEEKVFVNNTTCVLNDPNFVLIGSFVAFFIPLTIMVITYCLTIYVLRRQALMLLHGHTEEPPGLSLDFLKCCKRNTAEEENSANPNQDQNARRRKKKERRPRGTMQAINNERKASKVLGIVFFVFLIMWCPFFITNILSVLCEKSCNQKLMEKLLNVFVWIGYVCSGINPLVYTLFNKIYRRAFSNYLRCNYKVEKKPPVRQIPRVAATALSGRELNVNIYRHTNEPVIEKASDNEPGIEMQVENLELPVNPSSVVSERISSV
Chain of central 5-HT2A receptors (P28223 whole entry): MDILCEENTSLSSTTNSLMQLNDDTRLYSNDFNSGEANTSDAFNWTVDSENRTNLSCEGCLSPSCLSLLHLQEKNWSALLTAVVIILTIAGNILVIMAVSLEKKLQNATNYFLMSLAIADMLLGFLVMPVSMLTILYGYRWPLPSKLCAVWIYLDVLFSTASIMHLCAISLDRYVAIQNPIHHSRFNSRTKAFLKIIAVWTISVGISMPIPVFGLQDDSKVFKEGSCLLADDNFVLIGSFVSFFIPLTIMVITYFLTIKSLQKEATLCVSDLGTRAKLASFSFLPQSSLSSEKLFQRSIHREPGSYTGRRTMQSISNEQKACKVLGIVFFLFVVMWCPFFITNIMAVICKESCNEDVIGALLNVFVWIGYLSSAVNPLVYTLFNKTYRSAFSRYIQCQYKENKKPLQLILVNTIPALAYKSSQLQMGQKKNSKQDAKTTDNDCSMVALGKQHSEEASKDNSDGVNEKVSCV

Take `CN(C)CCO[C@]1(c2ccccc2)C[C@H]2CC[C@]1(C)C2(C)C` [deramciclane, (1R,2S,4R)-(−)-2-(2-dimethylaminoethoxy)-2-phenyl-1,7,7-trimethyl-bicyclo[2.2.1]heptane]: the “anxiety caused by CCK in elevated plus maze test” value in assay [1] (CCK-induced anxiety) is reported as “antagonized”. In addition, in [1] (in vivo), the “activity in elevated plus maze test” value is “ineffective”. The “binding to central 5-HT2C receptors (in words)” value at central 5-HT2C receptors is recorded as “binds primarily”. The “time spent with social interactions” value in assay [2] is on record as “increased”. Besides, the “CA1 cell death (score)” value in assay [3] (3 × 30 mg/kg i.p. (60 min before, 30 and 90 min after surgery), 6-point scale 0-6, BCO control 4.90) was 0.89** score. Moreover, the “Effect % (CA1 cell death)” value in [3] (setting [9]) is reported as −82%. For the same molecule, the “proportion of cell death in the hippocampal CA1 region (in words)” value in [3] (setting [10]) was “significantly reduced”. In addition, the “Number of arm entries” value in the assay on Mongolian gerbils (3 × 30 mg/kg i.p., Y-maze, 5 min, four days after surgery, sham 40.25, BCO 65.44) is 38.78**. Besides, the “Effect % (number of arm entries)” value in the assay with Mongolian gerbils (setting [9]) was −100%. Also, in the assay on Mongolian gerbils (setting [10]), the “locomotor activity of animals (in words)” value is recorded as “decreased the locomotor activity of animals into the normal range”. In addition, in assay [4], the “antidepressant activity in learned helplessness test” value is “produced antidepressant activity”. Besides, in assay [5], the “activity in marble burying test” value is listed as “active”. The “binding to central 5-HT2A receptors (in words)” value at central 5-HT2A receptors is given as “binds primarily”. The “activity in Vogel punished drinking test” value in assay [6] was “active”. Moreover, the “activity in light-dark test” value in assay [7] is recorded as “active”.
Regarding `Cc1nc2sccn2c(=O)c1CCN1CCC(=C(c2ccc(F)cc2)c2ccc(F)cc2)CC1` [ritanserin], the neuroprotective activity entry in assay [8] is “did not show neuroprotective activity; also recorded: did not produce neuroprotective effect”.
